Experimental data taken from patent US20230141777A1, “COMPOSITION WHICH IS FOR TREATING OR PREVENTING RENAL CELL CANCER AND CONTAINS D-ALLOSE AS ACTIVE INGREDIENT, AND METHOD FOR TREATING OR PREVENTING CANCER USING SAME” (NATIONAL UNIVERSITY CORPORATION KAGAWA UNIVERSITY, priority 2020, published 2023).
Entries after “also recorded” stand apart in the source; their conditions may differ.

Assays:
[1] = test system: human renal cell carcinoma cell line Caki-1 xenotransplantation mouse model; assay: Change in tumor volume and tumor histology in renal cell carcinoma xenotransplantation mouse model by oral administration of D-allose; assay type: in vivo; settings: Caki-1 xenograft
Protocol: (§1) The experiment was conducted using two different human renal cell carcinoma cell lines (Caki-1, ACHN). Each of the cells was cultured in a moist environment at 37° C., 5% CO2 using 10% fetal bovine serum and RPMI-1640 culture solution (2000 mg D-glucose/L) containing HEPES buffer and penicillin-streptomycin. The renal cell carcinoma xenotransplantation mouse model was prepared by adjusting cultured cells to a 1.0×10^5 cell/mL cell suspension with MEM culture solution, injecting 0.1 mL into the femoral subcutaneous tissue of Female athymic nude mice (BALB/c nu/nu, 6 weeks old), and confirming a tumor volume of 200 mm^3 or greater after 1 week, and it was used for the following experiment.
(§2) A D-allose-containing solution was orally administered from day 1, where “day 0” was defined as the day when the tumor size of the renal cell carcinoma xenotransplantation mouse model prepared using Caki-1 as the human renal cell carcinoma cell line reached 200 mm^3 or greater.
(§3) Either 0.2 mL physiological saline or 0.2 mL physiological saline dissolving 400 mg/kg D-allose was injected into the esophagus of mice divided into 2 groups (control group and D-allose group), through a Neraton catheter. The administration was carried out once a day for a total of 32 consecutive days. The mouse body weights and the long and short diameters of the tumors were measured twice a week. The tumor volumes were calculated as: tumor long diameter×short diameter×short diameter×0.5. The livers and kidneys were extracted with the tumors from the mice on the 32nd day after the start of oral administration and used for the subsequent experiment.
(§4) The tumors, kidneys and livers were extracted from the renal cell carcinoma xenotransplantation mouse models (control group and D-allose-administered group, 32nd day after start of administration), and the tissues were fixed with 4% paraformaldehyde/phosphate buffer, embedded in paraffin and sliced to thicknesses of 4 μm. The thin slices were stained with hematoxylin-eosin staining (HE staining) and observed (FIG. 3, FIG. 5 and FIG. 6).

[2] = test system: TXNIP; assay: TXNIP expression (Western blotting) in Caki-2; assay type: cell-based, human; settings: Caki-2, 10, 25 or 50 mM D-allose, 48 hours
Protocol: (§5) A human renal cell carcinoma cell line (Caki-1 or Caki-2) was seeded at 5.0×10^5 in a 100 mm dish and cultured for 24 hours, after which it was co-cultured with D-allose (10, 25 or 50 mM). After 48 hours, the cells were recovered and the protein was extracted, and the concentration of each protein was measured using a Bio-Rad Protein Assay Kit (Bio-Rad, Laboratories, Inc. USA). A protein sample ([…]) was electrophoresed on 10% Mini-PROTAN TGX Precast Gel (Bio-Rad) and a Trans-Blot Turbo transfer system (Bio-Rad) was used for transfer onto a PVDF Western Blotting Membrane. After blocking treatment for 1 hour (Superblock T20. Thermo, Rockford. Ill., USA), anti-TXNIP antibody (D5F3E, CST. USA. 1:1000) was used as primary antibody for reaction using an iBind Flex Western System (Thermo). The loading control used was β-actin (ab8227, abcam, CamBridge, UK, 1:1000).

[3] = Body weight and HE staining of kidney and liver tissue in renal cell carcinoma xenotransplantation mouse model after oral D-allose; assay type: in vivo
Protocol: as §2, §3, §4

[4] = test system: human colorectal cancer cell line (DLD-1) xenotransplantation mice; assay: Change in tumor volume in colorectal cancer xenotransplantation mouse model by administration of D-allose; assay type: in vivo; settings: DLD-1 xenograft, Mann-Whitney U test
Protocol: A cell suspension containing 2.0×10^6 cells of a human colorectal cancer cell line (DLD-1) was injected into femoral subcutaneous tissue of Male athymic nude mice (BALB/c Nude (nu/nu)mice), and adjustment of D-allose or D-glucose was initiated with “day 0” defined as the day when the tumor volume reached about 100 to 150 mm^3.
(§6) D-allose or D-glucose was intraperitoneally administered at 400 mg/kg to colorectal cancer xenotransplantation mice whose tumor volumes had reached about 100 mm^3. Physiological saline was used as the solvent for adjustment to 0.2 ml, and administration was once per day for a total of 30 days. The tumor volumes were measured every 6 days.
as §6, with “orally” for “intraperitoneally”, “100” for “400”, “100 to 150” for “100”, “Distilled water” for “Physiological saline”

[5] = test system: TXNIP; assay: TXNIP expression (Western blotting) in Caki-1; assay type: cell-based, human; settings: Caki-1, 10, 25 or 50 mM D-allose, 48 hours
Protocol: as §5

[6] = test system: human renal cell carcinoma cell line Caki-1; assay: Intracellular reactive oxygen species (ROS) production, DCF-DA fluorescence, Caki-1; assay type: cell-based; settings: Caki-1, 50 mM D-allose, co-culture 1 hour, vs DMSO
Protocol: (§7) After seeding human renal cell carcinoma cell line (Caki-1 or ACHN) at 5.0×10^5 in a 100 mm dish, culturing for 24 hours and then co-culturing with DMSO or D-allose (50 mM) for 1 hour, 10 μM 2,7-Dichlorofluorescin diacetate (DCF-DA; D6883, Sigma-Aldrich, USA) was added and the mixture was allowed to stand at 37° C. for 30 minutes. The cells were recovered with trypsin treatment and collected by centrifugal separation for 5 minutes at 3500×g, after which they were resuspended in ice-cold PBS and a CytoFLEX S (Beckman Coulter, CA, USA) was used to detect the DCF-DA fluorescence. Each experiment was conducted 3 times, and the data were analyzed using CytExpert software and recorded as the average value±SE (FIG. 8).

[7] = Change in tumor D-allose concentration after intraperitoneal or oral administration of D-allose to renal cell carcinoma xenotransplantation mouse model (HPLC); assay type: in vivo; settings: for D-allose detected in tumor: by 1 hour after oral administration
Protocol: as §1
In a xenotransplantation mouse model of two different human renal cell carcinoma cell lines (Caki-1, ACHN), tumors were enucleated from the mice at the 1st hour, 2nd hour and 4th hour before and after administration of D-allose by intraperitoneal administration (FIGS. 1(A) and (B)) or oral administration (FIGS. 1(C) and (D)) of a solution of rare sugar D-allose prepared using physiological saline to 400 mg/kg/0.2 mL. The monosaccharides in the supernatant obtained by ultrasonic disruption of the tumors in 1 mL of PBS and centrifugal separation at 3000 rpm for 5 minutes were labeled with ABEE (4-aminobenzoic acid ethyl ester) and the D-allose was quantitatively analyzed by HPLC (high performance liquid chromatography) (FIG. 1).

[8] = test system: human renal cell carcinoma cell line ACHN; assay: Intracellular reactive oxygen species (ROS) production, DCF-DA fluorescence, ACHN; assay type: cell-based; settings: 50 mM D-allose, co-culture 1 hour, vs DMSO
Protocol: as §7

tumor D-allose concentration with oral administration relative to intraperitoneal administration ([7]; 400 mg/kg, Caki-1 and ACHN tumors (not distinguished)): about 80%
D-allose detected in tumor ([7]; ACHN tumors, 400 mg/kg): detected in all of the tumors
D-allose detected in tumor ([7]; Caki-1 tumors, 400 mg/kg): detected in all of the tumors
time of maximum intratumoral D-allose concentration ([7]; Caki-1 tumors, oral administration, 400 mg/kg): 1 h
Compound: O=C[C@H](O)[C@H](O)[C@H](O)[C@H](O)CO [D-allose]
tumor volume at the 32nd day compared to tumor volume before D-allose administration ([1]; oral 400 mg/kg once a day for 32 days): significantly reduced
tumor volume compared to the control group ([1]; oral 400 mg/kg once a day, after the 8th day, Mann-Whitney U test): significantly reduced
nuclear fission in HE stained tumor tissue ([1]; oral 400 mg/kg/day, 32nd day, evaluation by a pathology specialist): reduced nuclear fission
TXNIP expression [2]: increases TXNIP expression in a D-allose dose-dependent manner
body weight compared to the control group ([3]; oral 400 mg/kg once a day, 32-day observation period): no significant difference
HE staining images of kidney tissue compared to the control group ([3]; oral 400 mg/kg/day, 32nd day): No particular difference
HE staining images of liver tissue compared to the control group ([3]; oral 400 mg/kg/day, 32nd day): No particular difference
tumor volume compared to the D-glucose group ([4]; intraperitoneal 400 mg/kg once per day for 30 days, after the 18th day): significantly smaller
tumor volume compared to the D-glucose group ([4]; oral 100 mg/kg once per day for 30 days, 100 mg/kg): no significant difference; also recorded: has not exhibited the anticancer effect
TXNIP expression [5]: increases TXNIP expression in a D-allose dose-dependent manner
intracellular ROS [6]: significantly increased
uptake into renal cell carcinoma compared to non-transintestinal (intraperitoneal) administration ([7]; transintestinal administration, summary statement): equivalent rate or with approximately about 20% reduction
intracellular ROS [8]: significantly increased
